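A five-concentration, 48-hour dose response in 96-well plates underlies each endpoint, interpolated linearly between surrounding concentrations. GI50: concentration for 50% inhibition of growth. The concentration for full growth arrest is given as TGI.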
Experiments:
Test in all cases: growth of human tumour cells (NCI), 48 h
SR leukemia = tested on: SR leukemia
SF-295 CNS = tested on: SF-295 CNS
A498 renal = tested on: A498 renal
MDA-MB-435 = tested on: MDA-MB-435
SK-MEL-2 melanoma = tested on: SK-MEL-2 melanoma
HCT-15 colon = tested on: HCT-15 colon
K-562 leukemia = tested on: K-562 leukemia
HCC-2998 colon = tested on: HCC-2998 colon
SK-MEL-5 melanoma = tested on: SK-MEL-5 melanoma
SK-OV-3 ovarian = tested on: SK-OV-3 ovarian
HS 578T breast = tested on: HS 578T breast
SNB-75 CNS = tested on: SNB-75 CNS
COLO 205 colon = tested on: COLO 205 colon
SK-MEL-28 melanoma = tested on: SK-MEL-28 melanoma
SN12C renal = tested on: SN12C renal
RPMI-8226 leukemia = tested on: RPMI-8226 leukemia
MALME-3M melanoma = tested on: MALME-3M melanoma
NCI/ADR-RES ovarian = tested on: NCI/ADR-RES ovarian
DU-145 prostate = tested on: DU-145 prostate
IGROV1 ovarian = tested on: IGROV1 ovarian
NCI-H226 lung = tested on: NCI-H226 lung
ACHN renal = tested on: ACHN renal
SW-620 colon = tested on: SW-620 colon
KM12 colon = tested on: KM12 colon
CAKI-1 renal = tested on: CAKI-1 renal
A549 NSCLC = tested on: A549 NSCLC
OVCAR-4 ovarian = tested on: OVCAR-4 ovarian
PC-3 prostate = tested on: PC-3 prostate
786-0 renal = tested on: 786-0 renal

Compound: CC(=O)ON1CCCC(P(=O)(OCCSC(=O)C(C)(C)C)OCCSC(=O)C(C)(C)C)C1=O (stereo not drawn)
- GI50 (SR leukemia): 571 nM
- TGI (SR leukemia): 64.2 µM
- GI50 (SF-295 CNS): 12.7 µM
- TGI (SF-295 CNS): > 100 µM
- GI50 (A498 renal): 304 nM
- TGI (A498 renal): 3.49 µM
- GI50 (MDA-MB-435): 3.02 µM
- TGI (MDA-MB-435): 88.6 µM
- GI50 (SK-MEL-2 melanoma): 4.47 µM
- TGI (SK-MEL-2 melanoma): 40 µM
- GI50 (HCT-15 colon): 973 nM
- TGI (HCT-15 colon): 76.1 µM
- GI50 (K-562 leukemia): 674 nM
- TGI (K-562 leukemia): > 100 µM
- GI50 (HCC-2998 colon): 1420 nM
- TGI (HCC-2998 colon): 12.4 µM
- GI50 (SK-MEL-5 melanoma): 1210 nM
- TGI (SK-MEL-5 melanoma): 4.15 µM
- GI50 (SK-OV-3 ovarian): 2860 nM
- TGI (SK-OV-3 ovarian): 88 µM
- GI50 (HS 578T breast): 1530 nM
- TGI (HS 578T breast): 8.94 µM
- GI50 (SNB-75 CNS): 1400 nM
- TGI (SNB-75 CNS): 23.3 µM
- GI50 (COLO 205 colon): 3.88 µM
- TGI (COLO 205 colon): > 100 µM
- GI50 (SK-MEL-28 melanoma): 1560 nM
- TGI (SK-MEL-28 melanoma): 15.5 µM
- GI50 (SN12C renal): 360 nM
- TGI (SN12C renal): 15 µM
- GI50 (RPMI-8226 leukemia): 1450 nM
- TGI (RPMI-8226 leukemia): 11.3 µM
- GI50 (MALME-3M melanoma): 537 nM
- TGI (MALME-3M melanoma): 9.05 µM
- GI50 (NCI/ADR-RES ovarian): 1350 nM
- TGI (NCI/ADR-RES ovarian): 12.4 µM
- GI50 (DU-145 prostate): 3.08 µM
- TGI (DU-145 prostate): > 100 µM
- GI50 (IGROV1 ovarian): 808 nM
- TGI (IGROV1 ovarian): 6.27 µM
- GI50 (NCI-H226 lung): 2270 nM
- TGI (NCI-H226 lung): 26.4 µM
- GI50 (ACHN renal): 1750 nM
- TGI (ACHN renal): 30.4 µM
- GI50 (SW-620 colon): 1590 nM
- TGI (SW-620 colon): > 100 µM
- GI50 (KM12 colon): 1210 nM
- TGI (KM12 colon): 13.8 µM
- GI50 (CAKI-1 renal): 2440 nM
- TGI (CAKI-1 renal): > 100 µM
- GI50 (A549 NSCLC): 1520 nM
- TGI (A549 NSCLC): > 100 µM
- GI50 (OVCAR-4 ovarian): 1580 nM
- TGI (OVCAR-4 ovarian): 26.4 µM
- GI50 (PC-3 prostate): 3.51 µM
- TGI (PC-3 prostate): > 100 µM
- GI50 (786-0 renal): 1410 nM
- TGI (786-0 renal): 90.4 µM

Source: PubChem BioAssay (NCI)
